Results from PMC6100082, “Pyridine-Ureas as Potential Anticancer Agents: Synthesis and In Vitro Biological Evaluation” (Molecules : A Journal of Synthetic Chemistry and Natural …, 2018).

What was measured:
[1] = system: CCRF-CEM; assay: NCI one-dose SRB assay (Leukemia); type: cell-based, human
Procedure, shortened: (§1)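 Percentage growth inhibition (GI%) was calculated from treated-cell growth measured by SRB protein assay following a 48 h exposure at 10^−5 M.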

[2] = system: HL-60(TB); assay: NCI one-dose SRB assay (Leukemia); type: cell-based, human
Procedure, shortened: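 SRB assay, 48 h drug exposure, compound fixed at 10^−5 M; output expressed as % growth inhibition.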

[3] = system: K-562; assay: NCI one-dose SRB assay (Leukemia); type: cell-based, human
Procedure, shortened: as §1

[4] = system: MOLT-4; assay: NCI one-dose SRB assay (Leukemia); type: cell-based, human
Procedure, shortened: as §1

[5] = system: RPMI-8226; assay: NCI one-dose SRB assay (Leukemia); type: cell-based, human
Procedure, shortened: as §1

[6] = system: SR; assay: NCI one-dose SRB assay (Leukemia); type: cell-based, human
Procedure, shortened: as §1

[7] = system: A549/ATCC; assay: NCI one-dose SRB assay (Non-Small Cell Lung Cancer); type: cell-based, human
Procedure, shortened: as §1

[8] = system: EKVX; assay: as above; type: cell-based, human
Procedure, shortened: as §1

[9] = system: HOP-62; assay: as above; type: cell-based, human
Procedure, shortened: as §1

[10] = system: HOP-92; assay: as above; type: cell-based, human
Procedure, shortened: as §1

[11] = system: NCI-H226; assay: as above; type: cell-based, human
Procedure, shortened: as §1

[12] = system: NCI-H23; assay: as above; type: cell-based, human
Procedure, shortened: as §1

[13] = system: NCI-H322M; assay: as above; type: cell-based, human
Procedure, shortened: as §1

[14] = system: NCI-H460; assay: as above; type: cell-based, human
Procedure, shortened: as §1

[15] = system: NCI-H522; assay: as above; type: cell-based, human
Procedure, shortened: as §1

[16] = system: LOX IMVI; assay: NCI one-dose SRB assay (Melanoma); type: cell-based, human
Procedure, shortened: as §1

[17] = system: M14; assay: NCI one-dose SRB assay (Melanoma); type: cell-based, human
Procedure, shortened: as §1

[18] = system: MALME-3M; assay: NCI one-dose SRB assay (Melanoma); type: cell-based, human
Procedure, shortened: as §1

[19] = system: MDA-MB-435; assay: NCI one-dose SRB assay (Melanoma); type: cell-based, human
Procedure, shortened: as §1

[20] = system: SK-MEL-28; assay: NCI one-dose SRB assay (Melanoma); type: cell-based, human
Procedure, shortened: as §1

[21] = system: SK-MEL-2; assay: NCI one-dose SRB assay (Melanoma); type: cell-based, human
Procedure, shortened: as §1

[22] = system: SK-MEL-5; assay: NCI one-dose SRB assay (Melanoma); type: cell-based, human
Procedure, shortened: as §1

[23] = system: UACC-257; assay: NCI one-dose SRB assay (Melanoma); type: cell-based, human
Procedure, shortened: as §1

[24] = system: UACC-62; assay: NCI one-dose SRB assay (Melanoma); type: cell-based, human
Procedure, shortened: as §1

[25] = Homo sapiens, 10 μM, read-out: Percentage growth inhibition (GI%)

In the case of `COc1ccc(-c2ccc(NC(=O)Nc3cccc(Cl)c3)c(C)n2)cc1OC` [Compound 8j, 1-(3-Chlorophenyl)-3-(6-(3,4-dimethoxyphenyl)-2-methylpyridin-3-yl) Urea], the “Growth Percent” value ([1]; 1.00E-5 Molar) is reported as 68.29%, the inhibition at 10 µM [1, 25] is reported as 32% and the “Growth Percent” value ([2]; 1.00E-5 Molar) is reported as 63.92%. For the same compound, the inhibition at 10 µM [2, 25] was 37%, the inhibition at 10 µM ([3]; Homo sapiens, K562, K-562, 10 μM, read-out: Percentage growth inhibition (GI%)) was 60% and the “Growth Percent” value ([3]; K-562, 1.00E-5 Molar) was 40.86%. For the same compound, the inhibition at 10 µM ([4]; Homo sapiens, MOLT-4, 10 μM, read-out: Percentage growth inhibition (GI%)) was 58%, the “Growth Percent” value ([4]; MOLT-4, 1.00E-5 Molar) was 42.64% and the inhibition at 10 µM ([5]; Homo sapiens, RPMI-8226, 10 μM, read-out: Percentage growth inhibition (GI%)) was 49%. The “Growth Percent” value ([5]; RPMI-8226, 1.00E-5 Molar) was 51.32%, the “Growth Percent” value ([6]; 1.00E-5 Molar) was 52.07% and the inhibition at 10 µM [6, 25] was 48%. The “Growth Percent” value ([7]; 1.00E-5 Molar) was 61.64%, the inhibition at 10 µM [7, 25] was 39% and the “Growth Percent” value ([8]; 1.00E-5 Molar) was 83.81%. For the same compound, the inhibition at 10 µM [8, 25] was 17%, the “Growth Percent” value ([9]; HOP-62, 1.00E-5 Molar) was 77.77% and the inhibition at 10 µM ([9]; Homo sapiens, HOP-62, 10 μM, read-out: Percentage growth inhibition (GI%)) was 23%. The “Growth Percent” value ([10]; HOP-92, 1.00E-5 Molar) was 60.18%, the inhibition at 10 µM ([10]; Homo sapiens, HOP-92, 10 μM, read-out: Percentage growth inhibition (GI%)) was 40% and the inhibition at 10 µM ([11]; Homo sapiens, NCI-H226, 10 μM, read-out: Percentage growth inhibition (GI%)) was < 10%. For the same compound, the “Growth Percent” value ([11]; NCI-H226, 1.00E-5 Molar) was 91.65%, the inhibition at 10 µM ([12]; Homo sapiens, NCI-H23, 10 μM, read-out: Percentage growth inhibition (GI%)) was 11% and the “Growth Percent” value ([12]; NCI-H23, 1.00E-5 Molar) was 89.49%. The “Growth Percent” value ([13]; 1.00E-5 Molar) was 85.92%, the inhibition at 10 µM [13, 25] was 15% and the inhibition at 10 µM ([14]; Homo sapiens, NCI-H460, 10 μM, read-out: Percentage growth inhibition (GI%)) was 17%. For the same compound, the “Growth Percent” value ([14]; NCI-H460, 1.00E-5 Molar) was 83.94%, the inhibition at 10 µM ([15]; Homo sapiens, NCI-H522, 10 μM, read-out: Percentage growth inhibition (GI%)) was 41% and the “Growth Percent” value ([15]; NCI-H522, 1.00E-5 Molar) was 59.88%. For the same compound, the “Growth Percent” value ([16]; 1.00E-5 Molar) was 80.89%, the inhibition at 10 µM [16, 25] was 20% and the inhibition at 10 µM ([17]; Homo sapiens, M14, 10 μM, read-out: Percentage growth inhibition (GI%)) was 50%. For the same compound, the “Growth Percent” value ([17]; M14, 1.00E-5 Molar) was 50.80%, the “Growth Percent” value ([18]; 1.00E-5 Molar) was 98.93% and the inhibition at 10 µM [18, 25] was < 10%. The inhibition at 10 µM ([19]; Homo sapiens, MDA-MB-435, 10 μM, read-out: Percentage growth inhibition (GI%)) was 13%, the “Growth Percent” value ([19]; MDA-MB-435, 1.00E-5 Molar) was 87.66% and the inhibition at 10 µM ([20]; Homo sapiens, SK-MEL-28, 10 μM, read-out: Percentage growth inhibition (GI%)) was 21%. The “Growth Percent” value ([20]; SK-MEL-28, 1.00E-5 Molar) was 79.52%, the inhibition at 10 µM ([21]; Homo sapiens, SK-MEL-2, 10 μM, read-out: Percentage growth inhibition (GI%)) was 16% and the “Growth Percent” value ([21]; SK-MEL-2, 1.00E-5 Molar) was 84.73%. For the same compound, the inhibition at 10 µM ([22]; Homo sapiens, SK-MEL-5, 10 μM, read-out: Percentage growth inhibition (GI%)) was 32%, the “Growth Percent” value ([22]; SK-MEL-5, 1.00E-5 Molar) was 68.63% and the inhibition at 10 µM ([23]; Homo sapiens, UACC-257, 10 μM, read-out: Percentage growth inhibition (GI%)) was 29%. The “Growth Percent” value ([23]; UACC-257, 1.00E-5 Molar) was 71.26%, the inhibition at 10 µM ([24]; Homo sapiens, UACC-62, 10 μM, read-out: Percentage growth inhibition (GI%)) was 25% and the “Growth Percent” value ([24]; UACC-62, 1.00E-5 Molar) was 75.01%. The melting point was 249 to 250 °C.
